Results from the supplement of paper PMC13380429.

How the values were obtained:
Conditions in all cases: 72 h
Caco-2 [1] = assay: cell viability relative to DMSO; higher = less toxic
Vero E6 [2] = assay: as above
Calu-3 [3] = assay: as above
HepG2 [4] = assay: as above
U2OS [5] = assay: as above
Caco-2 [6] = assay: relative viability EC50 (midpoint between 100% and the lowest measured viability); higher = less toxic
Vero E6 [7] = assay: as above
Calu-3 [8] = assay: as above
HepG2 [9] = assay: as above
U2OS [10] = assay: as above
Caco-2 [11] = assay: drug sensitivity score (DSS) for viability; higher = more toxic; extreme values may be limits of the assay
Vero E6 [12] = assay: as above
Calu-3 [13] = assay: as above
HepG2 [14] = assay: as above
U2OS [15] = assay: as above

Structure (SMILES)	cell viability (Caco-2 [1]; 1 nM) [%]	cell viability (Caco-2 [1]; 10 nM) [%]	cell viability (Caco-2 [1]; 100 nM) [%]	cell viability (Caco-2 [1]; 1000 nM) [%]	cell viability (Caco-2 [1]; 10000 nM) [%]	cell viability (Vero E6 [2]; 1 nM) [%]	cell viability (Vero E6 [2]; 10 nM) [%]	cell viability (Vero E6 [2]; 100 nM) [%]	cell viability (Vero E6 [2]; 1000 nM) [%]	cell viability (Vero E6 [2]; 10000 nM) [%]	cell viability (Calu-3 [3]; 1 nM) [%]	cell viability (Calu-3 [3]; 10 nM) [%]	cell viability (Calu-3 [3]; 100 nM) [%]	cell viability (Calu-3 [3]; 1000 nM) [%]	cell viability (Calu-3 [3]; 10000 nM) [%]	cell viability (HepG2 [4]; 1 nM) [%]	cell viability (HepG2 [4]; 10 nM) [%]	cell viability (HepG2 [4]; 100 nM) [%]	cell viability (HepG2 [4]; 1000 nM) [%]	cell viability (HepG2 [4]; 10000 nM) [%]	cell viability (U2OS [5]; 1 nM) [%]	cell viability (U2OS [5]; 10 nM) [%]	cell viability (U2OS [5]; 100 nM) [%]	cell viability (U2OS [5]; 1000 nM) [%]	cell viability (U2OS [5]; 10000 nM) [%]	relative viability EC50 (Caco-2 [6]) [µM]	relative viability EC50 (Vero E6 [7]) [µM]	relative viability EC50 (Calu-3 [8]) [µM]	relative viability EC50 (HepG2 [9]) [µM]	relative viability EC50 (U2OS [10]) [µM]	drug sensitivity score (Caco-2 [11])	drug sensitivity score (Vero E6 [12])	drug sensitivity score (Calu-3 [13])	drug sensitivity score (HepG2 [14])	drug sensitivity score (U2OS [15])
O=c1c(-c2ccc(O)cc2)coc2cc(O)cc(O)c12 [genistein]	102	96.6	105	97	90.3	102	108	108	96.1	97.2	96.4	91.5	98.1	103	82.9	95.2	89.9	95.9	102	82.6	93.9	98.8	87.1	87	95.4	> 10	> 10	> 10	> 10	> 10	0	0	0.3	0.3	0
O=C(O)CNC(=O)c1ccccc1 [hippuric-acid]	96.9	107	89.2	90	92.8	96	98.1	97.1	94.7	100	99	97.6	94.3	96.6	99.9	100	98.3	99.4	102	95.7	100	99.3	106	95.2	95.7	> 10	> 10	> 10	> 10	> 10	0.4	0	0	0	0
Cc1nccn1CCC(C(N)=O)(c1ccccc1)c1ccccc1 [imidafenacin]	99.4	91.8	92.8	87.3	93.4	97.9	100	95.5	99.2	97.2	106	107	106	97.9	102	101	97.3	97.5	95	92.5	99	94	101	96.4	96.5	> 10	> 10	> 10	> 10	> 10	0.1	0	0	0	0
CC(=O)N(C)c1cccc(-c2ccnc3c(C(=O)c4cccs4)cnn23)c1 [indiplon]	100	92.6	93.5	103	92.1	105	102	97.1	107	91.3	99.4	98.2	91.6	96.3	101	100	103	97.3	96.7	77.3	112	99.4	101	96.5	100	> 10	> 10	> 10	> 10	> 10	0	0	0	1.3	0
N=C(N)NCc1cccc(I)c1 [iobenguane]	114	100	118	85.6	81.4	100	104	111	102	87.7	110	98.9	107	111	98.6	104	91.6	79.8	79.3	83	97.6	99.8	99.1	95.2	95.9	> 10	> 10	> 10	> 10	> 10	1.7	0	0	6.1	0
CC(=O)N(CC(C)C(=O)O)c1c(I)cc(I)c(N)c1I (stereo not given) [iocetamic-acid]	101	99.3	90.6	95.5	99.9	107	103	97.3	105	101	97.3	98.6	91.5	90.3	95.4	93	102	99.8	102	96.1	98.2	103	104	102	101	> 10	> 10	> 10	> 10	> 10	0	0	0	0	0
